Measurements reported in patent US5077059A, “Process for preparing melanogenic inhibitor, and pigmentation-lightening agent containing the same” (Yuaka; Mishimazo, priority 1987, dated 1991).

Legend:
Assay type in all cases: cell-based
[1] = test system: RPMI 1846 cell (hamster melanoma origin); assay: Comparison of melanogenic inhibitory activity, RPMI 1846 cell; conditions: Experiment 2, RPMI 1846 cell; intact melanogenic inhibitor at 1 or 3 units
Description: (§1) According to the method for detecting melanogenic inhibitory activity in a prescribed pigment cell, specimens containing 1 or 3 units of an intact melanogenic inhibitor, obtained by the method in Experiment 1, were used to compare melanogenic inhibitory activity in established melanoma cell lines, i.e., B-16 cell (mouse melanoma origin), RPMI 1846 cell (hamster melanoma origin), and Malme-3M cell (human melanoma origin).
(§2) As control, either a system without melanogenic inhibitor or another system with melanogenic inhibitor which had been treated at […] for 2 hours was tested similarly as above.

[2] = test system: B-16 cell derived from mouse melanoma; assay: Melanogenic inhibitory activity in a prescribed pigment cell (B-16); conditions: Experiment 2, B-16 cell; intact melanogenic inhibitor at 1 or 3 units
Experimental: The melanogenic inhibitory activity in a prescribed pigment cell is detected by the method described in Cancer Research, Vol. 42, pp. 1994-2002 (1982).
B-16 cell derived from mouse melanoma is suspended in 10 ml Eagle's minimal essential medium (Grand Island Biological Co., Grand Island, N.Y.), supplemented with 10% fetal calf serum, to give 4×10^4 cells. The suspension is placed into a 25 cm^2 Roux's flask, and cultured at 37° C. with 5% CO2. The cultivation is continued for 5 days while replacing the culture medium with a fresh one supplemented with a melanogenic inhibitor specimen at the first- and third-days. After completion of the culture, the resultant cells are washed with a phosphate buffer (pH 7.2) containing 0.8 w/v % saline to detach them from the inside wall of the Roux's flask by the addition of a solution containing trypsin and EDTA (ethylenediaminetetraacetic acid), collected on a filter paper, and dried. The resultant cells are subjected to densitometry to measure the reflection light at a wave length of 500 nm, followed by determination of the reflection absorbance (degree of darkness).
One unit of melanogenic inhibitory activity is defined as the amount of the melanogenic inhibitor which halves the reflection absorbance of B-16 cells without treatment of melanogenic inhibitor.
as §1

[3] = test system: Malme-3M cell (human melanoma origin); assay: Comparison of melanogenic inhibitory activity, Malme-3M cell; conditions: Experiment 2, Malme-3M cell; intact melanogenic inhibitor at 1 or 3 units
Description: as §1, §2

Measured: melanogenic inhibitory activity, comparison

N[C@@H](CS)C(=O)O [cysteine]
no melanogenic inhibition: all assays above

N[C@@H](CCC(=O)N[C@@H](CS)C(=O)NCC(=O)O)C(=O)O [glutathione]
no melanogenic inhibition: all assays above

O=C1O[C@H]([C@@H](O)CO)C(O)=C1O [vitamin C]
no melanogenic inhibition: all assays above
